Read-outs that look alike come from different tables or passages of the source.
Tests used:
[1] = tested on: adjuvant-induced arthritis in rats; assay: Established Adjuvant-Induced Arthritis in Rats; format: in vivo, rat (male Charles River Lewis); conditions: for ED50: 24 h, read-out: Adjuvant Arthritis ED50 (effective dose for 50% decrease from control paw volume)
[2] = tested on: phenylquinone writhing in mice; assay: Phenylquinone Writhing Test (analgesic activity); format: in vivo, mouse (female white mice); conditions: read-out: Phenylquinone Writhing (PQW) ED50 (effective analgesic dose for 50% of the mice)
Procedure: Phenylquinone Writhing Test
A test compound suspended in 1% methylcellulose was given orally to fasted (17-21 hours) female white mice, 5-20 animals per double blind test. Aqueous (0.01% phenyl-p-benzoquinone) phenylquinone, 0.20 ml per mouse, was injected intraperitoneally 6 minutes before observations were begun.

[3] = mouse, oral, phenylquinone i.p. 6 minutes before 10 minutes observation
[4] = rat, oral gavage, 7 daily doses, paw volume one day after last dose

SMILES: CC(=O)Oc1ccccc1C(=O)O [Aspirin, reference compound]
- ED50 ([1]; Rattus norvegicus, po): 305 mg/kg

SMILES: COc1ccc(-c2cc(C)sc2-c2ccc(OC)cc2)cc1 [Example 1, 5-Methyl-2,3-bis(4-methoxyphenyl)thiophene]
- ED50 [2, 3]: 78 mg/kg
- ED50 [1, 4]: 60 mg/kg

SMILES: CCC(C)c1cc(-c2ccc(OC)cc2)c(-c2ccc(OC)cc2)s1 (stereo not drawn) [Example 2, 5-(1-Methylpropyl)-2,3-bis(4-methoxyphenyl)thiophene]
- ED50 [2, 3]: 5.5 mg/kg
- ED50 [1, 4]: 29 mg/kg

SMILES: COc1ccc(-c2cc(C3CCCCC3)sc2-c2ccc(OC)cc2)cc1 [Example 3, 5-Cyclohexyl-2,3-bis(4-methoxyphenyl)thiophene]
- ED50 [2, 3]: 47 mg/kg
- percent reduction in paw volume at the indicated dose ([1]; rat, oral gavage, 7 daily doses, at 45 mg/kg): 34%

SMILES: COc1ccc(-c2cc(C(C)(C)C)sc2-c2ccc(OC)cc2)cc1 [Example 4, 5-(1,1-Dimethylethyl)-2,3-bis(4-methoxyphenyl)thiophene]
- ED50 [2, 3]: 1.4 mg/kg
- ED50 [1, 4]: 36 mg/kg

SMILES: CC(C)Cc1ccc(C(C)C(=O)O)cc1 (stereo not drawn) [Ibuprofen, reference compound]
- ED50 [2, 3]: 10 mg/kg
- ED50 [1, 4]: 100 mg/kg

SMILES: COc1ccc2c(c1)c(CC(=O)O)c(C)n2C(=O)c1ccc(Cl)cc1 [Indomethacin, reference compound]
- ED50 ([2]; Mus musculus, po): 0.35 mg/kg
- ED50 ([1]; Rattus norvegicus, po): 0.3 mg/kg

SMILES: CCCCC1C(=O)N(c2ccccc2)N(c2ccccc2)C1=O [Phenylbutazone, reference compound]
- ED50 [2, 3]: 80 mg/kg
- ED50 [1, 4]: 10 mg/kg
